# Source: patent US20260041095A1, “A PRESERVATION METHOD” (AnalytiCon Discovery - Zweigniederlassung der BRAIN Biotech …, priority 2022, published 2026)
# Legend:
# Type in all cases: cell-based
# Brettanomyces sp SUN08 = assay: Antimicrobial activity (MIC), Brettanomyces sp SUN08; conditions: potato dextrose broth pH 3.8, visual evaluation; for MIC: read-out: Minimal Inhibitory Concentration (MIC)
# [1] = tested on: Dekkera naardenensis CBS 6115; assay: Antimicrobial activity (MIC), Dekkera naardenensis CBS 6115; conditions: Brettanomyces naardenensis, CBS6115, potato dextrose broth pH 3.8, visual evaluation, read-out: Minimal Inhibitory Concentration (MIC)
# [2] = tested on: Leuconostoc mesenteroides DSM 20343; assay: Antimicrobial activity (MIC), Leuconostoc mesenteroides DSM 20343; conditions: DSM20343, potato dextrose broth pH 3.8, visual evaluation, read-out: Minimal Inhibitory Concentration (MIC)
# [3] = tested on: Zygosaccharomyces rouxii DSM 7525; assay: Antimicrobial activity (MIC), Zygosaccharomyces rouxii DSM 7525; conditions: DSM7525, potato dextrose broth pH 3.8, visual evaluation, read-out: Minimal Inhibitory Concentration (MIC)
# [4] = tested on: Enterococcus faecalis ATCC 7080; assay: Antimicrobial activity (MIC), Enterococcus faecalis ATCC 7080; conditions: ATCC7080, potato dextrose broth pH 3.8, visual evaluation, read-out: Minimal Inhibitory Concentration (MIC)
# Penicillium paneum SUN04 = assay: Antimicrobial activity (MIC), Penicillium paneum SUN04; conditions: potato dextrose broth pH 3.8, visual evaluation; for MIC: read-out: Minimal Inhibitory Concentration (MIC)
# Byssochlamys nivea SUN10 = assay: Antimicrobial activity (MIC), Byssochlamys nivea SUN10; conditions: potato dextrose broth pH 3.8, visual evaluation; for MIC: Paecilomyces niveus, read-out: Minimal Inhibitory Concentration (MIC)
# [5] = tested on: Zygosaccharomyces bailli SUN02; assay: Antimicrobial activity (MIC), Zygosaccharomyces bailli SUN02; conditions: potato dextrose broth pH 3.8, visual evaluation; for MIC: read-out: Minimal Inhibitory Concentration (MIC)
# [6] = tested on: Neosartorya fischeri SUN09; assay: Antimicrobial activity (MIC), Neosartorya fischeri SUN09; conditions: potato dextrose broth pH 3.8, visual evaluation; for MIC: Aspergillus fischeri, read-out: Minimal Inhibitory Concentration (MIC)
# [7] = tested on: Candida albicans ATCC10231; assay: Antimicrobial activity (MIC), Candida albicans ATCC10231; conditions: potato dextrose broth pH 3.8, visual evaluation, read-out: Minimal Inhibitory Concentration (MIC)
# [8] = tested on: Saccharomyces cerevisiae SUN06; assay: Antimicrobial activity (MIC), Saccharomyces cerevisiae SUN06; conditions: potato dextrose broth pH 3.8, visual evaluation; for MIC: read-out: Minimal Inhibitory Concentration (MIC)
# [9] = tested on: Byssochlamys fulva DSM 1808; assay: Antimicrobial activity (MIC), Byssochlamys fulva DSM 1808; conditions: Paecilomyces fulvus, DSM1808, potato dextrose broth pH 3.8, visual evaluation, read-out: Minimal Inhibitory Concentration (MIC)
# [10] = tested on: Zygosaccharomyces bailli SUN07; assay: Antimicrobial activity (MIC), Zygosaccharomyces bailli SUN07; conditions: potato dextrose broth pH 3.8, visual evaluation; for MIC: read-out: Minimal Inhibitory Concentration (MIC)
# [11] = tested on: Leuconostoc lactis DSM 20202; assay: Antimicrobial activity (MIC), Leuconostoc lactis DSM 20202; conditions: DSM20202, potato dextrose broth pH 3.8, visual evaluation, read-out: Minimal Inhibitory Concentration (MIC)
# [12] = tested on: Penicillium expansum DSM 62841; assay: Antimicrobial activity (MIC), Penicillium expansum DSM 62841; conditions: DSM62841, potato dextrose broth pH 3.8, visual evaluation, read-out: Minimal Inhibitory Concentration (MIC)
# [13] = tested on: Bacillus subtilis ATCC 6633; assay: Antimicrobial activity (MIC), Bacillus subtilis ATCC 6633; conditions: ATCC6633, potato dextrose broth pH 3.8, visual evaluation, read-out: Minimal Inhibitory Concentration (MIC)
# [14] = tested on: Alicyclobacillus acidoterrestris DSM 2498; assay: Antimicrobial activity (MIC), Alicyclobacillus acidoterrestris DSM 2498; conditions: DSM2498, potato dextrose broth pH 3.8, visual evaluation, read-out: Minimal Inhibitory Concentration (MIC)
# [15] = tested on: Corynebacterium xerosis DSM 20743; assay: Antimicrobial activity (MIC), Corynebacterium xerosis DSM 20743; conditions: DSM20743, potato dextrose broth pH 3.8, visual evaluation, read-out: Minimal Inhibitory Concentration (MIC)
# [16] = tested on: Zygosaccharomyces bailii DSM 70834; assay: Antimicrobial activity (MIC), Zygosaccharomyces bailii DSM 70834; conditions: DSM70834, potato dextrose broth pH 3.8, visual evaluation, read-out: Minimal Inhibitory Concentration (MIC)
# Asaia siamensis SUN03 = assay: Antimicrobial activity (MIC), Asaia siamensis SUN03; conditions: potato dextrose broth pH 3.8, visual evaluation
# [17] = tested on: Saccharomyces cerevisiae SUN01; assay: Antimicrobial activity (MIC), Saccharomyces cerevisiae SUN01; conditions: potato dextrose broth pH 3.8, visual evaluation; for MIC: read-out: Minimal Inhibitory Concentration (MIC)
# [18] = tested on: Saccharomyces cerevisiae DSM 2548; assay: Antimicrobial activity (MIC), Saccharomyces cerevisiae DSM 2548; conditions: DSM2548, potato dextrose broth pH 3.8, visual evaluation, read-out: Minimal Inhibitory Concentration (MIC)
# [19] = tested on: Clostridium sporogenes ATCC19404; assay: Antimicrobial activity (MIC), Clostridium sporogenes ATCC19404; conditions: potato dextrose broth pH 3.8, visual evaluation, read-out: Minimal Inhibitory Concentration (MIC)
# Protocol: Compounds are dissolved at a concentration of 20 mg/mL using 100% DMSO. • Preculture: yeast and bacteria are plated on potato dextrose agar, resuspended in potato dextrose broth and CFU via OD measurement determined; adjusting CFU of the strain in PDB pH 3.8 • Preculture: for mycel forming fungi spores were directly used after thawing of cryopreserved stocks of known titre • Final titre used for the assay: Yeast strains 5*10^3 CFU/ml, Bacteria 1*10^6 CFU/ml, Fungi (spores) 5*10^4 CFU/ml • Potato dextrose broth pH 3.8 was used as assay matrix • 500 ppm (0.05%) of the compounds were screened (final DMSO 2.5% (v/v)) • Volume: 100 μl in 96-well format • Positive controls: potassium sorbate, sodium benzoate & triclosan • 28° C. to 30° C., static incubation • Incubation time depending on spoilage organism between 2 and 8 days • Visual evaluation (per eye, for fungi with binocular magnification)
# [20] = tested on: Malassezia furfur DSM 6170; assay: Antimicrobial activity (MIC), Malassezia furfur DSM 6170; conditions: DSM6170, potato dextrose broth pH 3.8, visual evaluation, read-out: Minimal Inhibitory Concentration (MIC)
# [21] = tested on: Lactobacillus paracasei ssp. paracasei DSM 46331; assay: Antimicrobial activity (MIC), Lactobacillus paracasei ssp. paracasei DSM 46331; conditions: Lacticaseibacillus paracasei, DSM46331, potato dextrose broth pH 3.8, visual evaluation, read-out: Minimal Inhibitory Concentration (MIC)
# [22] = tested on: Yarrowia lipolytica DSM 70561; assay: Antimicrobial activity (MIC), Yarrowia lipolytica DSM 70561; conditions: DSM70561, potato dextrose broth pH 3.8, visual evaluation, read-out: Minimal Inhibitory Concentration (MIC)
# [23] = tested on: Candida parapsilosis SUN05; assay: Antimicrobial activity (MIC), Candida parapsilosis SUN05; conditions: potato dextrose broth pH 3.8, visual evaluation; for MIC: Lodderomyces parapsilosis, read-out: Minimal Inhibitory Concentration (MIC)
Compound,MIC (Brettanomyces sp SUN08) [µg/mL],MIC (Penicillium paneum SUN04) [µg/mL],MIC (Byssochlamys nivea SUN10) [µg/mL],MIC [5] [µg/mL],MIC [6] [µg/mL],MIC [8] [µg/mL],MIC [10] [µg/mL],MIC [17] [µg/mL],MIC [23] [µg/mL],Minimal Inhibitory Concentration (MIC) (Brettanomyces sp SUN08),Minimal Inhibitory Concentration (MIC) (Penicillium paneum SUN04),Minimal Inhibitory Concentration (MIC) (Byssochlamys nivea SUN10),Minimal Inhibitory Concentration (MIC) [6],Minimal Inhibitory Concentration (MIC) (Asaia siamensis SUN03),Minimal Inhibitory Concentration (MIC) [23],also measured
CCCC(O)CC(=O)O[C@H]1[C@H](O[C@H]2[C@H](O)[C@@H](O)[C@H](OCC(O)CCCCCCCCCCCCC(O)C(=O)O)O[C@@H]2COC(C)=O)O[C@H](CO)[C@@H](O)[C@@H]1O (stereo partly drawn) [NP-018217],≤ 125,≤ 31.2,≤ 31.2,≤ 125,≤ 31.2,≤ 125,500,≤ 125,≤ 125,,,,,,,MIC [1]: 240 µg/mL; MIC [2]: 240 µg/mL; MIC [3]: 240 µg/mL; MIC [4]: 240 µg/mL; MIC [7]: 80 µg/mL; MIC [9]: 80 µg/mL; MIC [11]: 250 µg/mL; MIC [12]: 240 µg/mL; MIC [13]: 600 µg/mL; MIC [14]: 240 µg/mL; MIC [15]: 240 µg/mL; MIC [16]: 80 µg/mL; MIC (Asaia siamensis SUN03; read-out: Minimal Inhibitory Concentration (MIC)): 500 µg/mL; MIC [18]: 240 µg/mL; MIC [19]: 80 µg/mL; MIC [20]: 80 µg/mL; MIC [21]: 80 µg/mL; MIC [22]: 240 µg/mL
CCCCCC(O)CC(=O)O[C@@H]1[C@@H](O)[C@H](O[C@H]2[C@H](O)[C@@H](O)[C@H](OCC(O)CCCCCCCCCCCCC(O)C(=O)O)O[C@@H]2COC(C)=O)O[C@H](CO)[C@H]1O (stereo partly drawn) [NP-018218],,,,,,500,,,,inact.,inact.,inact.,inact.,inact.,inact.,Minimal Inhibitory Concentration (MIC) [5]: inact.; Minimal Inhibitory Concentration (MIC) [10]: inact.; Minimal Inhibitory Concentration (MIC) [17]: inact.
O=C(O)OC[C@H]1O[C@@H](OCC(O)CCCCCCCCCCCCC(O)C(=O)O)[C@H](O)[C@@H](O)[C@@H]1O[C@@H]1O[C@H](CO)[C@@H](O)[C@H](O)[C@H]1O (stereo partly drawn) [NP-018243],250,≤ 125,250,250,≤ 125,250,250,250,500,,,,,inact.,,
O=C(O)OC[C@H]1O[C@@H](OCC(O)CCCCCCCCCCCCC(O)C(=O)O)[C@H](O)[C@@H](O)[C@@H]1O[C@@H]1O[C@H](CO)[C@@H](O)[C@H](OC(=O)CC(O)CCO)[C@H]1O (stereo partly drawn) [NP-018249],,,,500,,,500,500,,inact.,inact.,inact.,inact.,inact.,inact.,Minimal Inhibitory Concentration (MIC) [8]: inact.
